Consider three compounds from publication PMC12926254, “Novel pyrazole carboxylate derivatives as lonazolac bioisosteres with selective COX-2 inhibition: design, synthesis and anti-inflammatory activity” (Molecular Diversity, 2025).

The target of one series is T1, 15-LOX (Glycine max, UniProt P08170).
T1 construct: purchased Cayman Chemical 760,700
T1 sequence (P08170 1-839): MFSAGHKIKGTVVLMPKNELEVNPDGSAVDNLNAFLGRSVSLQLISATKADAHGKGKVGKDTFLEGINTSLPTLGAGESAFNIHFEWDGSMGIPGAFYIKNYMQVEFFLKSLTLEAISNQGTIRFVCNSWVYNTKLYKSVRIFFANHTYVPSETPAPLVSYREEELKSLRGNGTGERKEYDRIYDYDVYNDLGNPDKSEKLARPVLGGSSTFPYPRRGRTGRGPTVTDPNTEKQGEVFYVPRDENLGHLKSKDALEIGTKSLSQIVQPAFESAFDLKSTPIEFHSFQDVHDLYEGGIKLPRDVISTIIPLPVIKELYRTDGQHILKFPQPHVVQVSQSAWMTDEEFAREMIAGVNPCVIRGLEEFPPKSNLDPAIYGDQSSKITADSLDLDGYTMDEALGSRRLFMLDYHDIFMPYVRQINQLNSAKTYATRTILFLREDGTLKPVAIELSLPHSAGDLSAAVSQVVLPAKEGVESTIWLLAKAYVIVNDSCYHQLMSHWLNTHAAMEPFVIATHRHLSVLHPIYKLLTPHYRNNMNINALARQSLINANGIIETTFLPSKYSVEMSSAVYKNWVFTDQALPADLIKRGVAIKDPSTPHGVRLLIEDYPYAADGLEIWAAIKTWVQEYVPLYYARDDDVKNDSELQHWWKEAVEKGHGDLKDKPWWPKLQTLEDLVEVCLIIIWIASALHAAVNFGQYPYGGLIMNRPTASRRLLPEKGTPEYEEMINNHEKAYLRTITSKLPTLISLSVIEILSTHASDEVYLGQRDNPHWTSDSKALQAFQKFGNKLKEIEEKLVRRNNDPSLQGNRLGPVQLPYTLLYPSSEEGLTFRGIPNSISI
Description: In vitro 15-LOX inhibition (Lipoxygenase Inhibitor Screening assay Kit 760700, Cayman). Type of series: biochemical. The following applies: mean of six values ± standard deviation. The procedure:
15-LOX inhibitor screening protocol: Blank wells: 100 µl of assay buffer was added to at least two wells, Positive control wells: 90 µl of 15-LOX standard was added to 10 µl of assay buffer to at least two wells, 100% initial activity wells: 90 µl of Lipoxygenase enzyme was added to 10 µl of solvent to at least two wells, Inhibitor wells: 90 µl of Lipoxygenase enzyme was added to 10 µl of inhibitor wells to. It was incubated for five minutes at room temperature. The reaction was initiated by adding 10 µl of substrate to all the wells. 96well-plates were placed on a shaker for at least 10 min. 100 µl of chromogen was added to each well to stop the enzyme catalysis. The reaction was covered with plate cover. 96well-plates were placed on a shaker for at least 5 min. The cover was removed and absorbance was read using plate reader at absorbance 490–500 nm.

The test system of the next series is gastric mucosa. Description: Ulcerogenic liability (ulcer index). Type of series: in vivo. As to conditions: 50 mg/kg orally, three successive days, rats. The procedure:
[…]. […] Rats were divided into 7 groups and fasted for 18 h before drug administration. The control group received the vehicle (2.5% Tween 80). […] After 2 h, animals were fed. Rats were given the required dose orally for three successive days. After 2 h of the last dose, rats were sacrificed; the stomach of each rat was removed then opened along the greater curvature and rinsed with saline. In order to examine the stomach, it was stretched by pins on a corkboard. The gastric mucosa was carefully inspected for the occurrence of ulcers with the aid of an illuminated magnifying lens (l0x), then ulcer index was calculated according to the method described by Cho and Ogle. Lesions were counted and measured along the greater diameter using transparent ruler. Every five hemorrhagic spots were considered equivalent to 1 mm of ulcer. The ulcer index (mm) was calculated from the sum of the total length of ulcers and hemorrhagic spots in each stomach.

For the next series, the system named is iNOS. Description: Inducible nitric oxide synthase (iNOS) inhibition in LPS-induced RAW 264.7 cells (ELISA). The series is classed as cell-based. The following applies: Mus musculus, RAW264.7. An excerpt: NO is produced from L-arginine by iNOS and is utilized in a variety of cell signaling processes. An inducible member of the NOS family, iNOS is increased during pro-inflammatory cytokine activity as a host-defense mechanism. A commercially available quantitative ELISA kit (ab253219 Mouse iNOS Simple Step ELISA® Kit) will be used to evaluate the iNOS enzyme activity of the substances in the cell lysate in accordance with the manufacturer’s instructions.
On the technique in general: ELISA stands for enzyme-linked immunosorbent assay.

The subject of the next series is TNF-α. The series can be described thus: TNF-α production in LPS-activated RAW 264.7 macrophages (ELISA). As to conditions: Mus musculus, RAW264.7, read-out: TNF-α IC50.
For a further series, the target named is T2, 5-LOX (Homo sapiens, UniProt P09917).
T2 sequence (P09917 1-674): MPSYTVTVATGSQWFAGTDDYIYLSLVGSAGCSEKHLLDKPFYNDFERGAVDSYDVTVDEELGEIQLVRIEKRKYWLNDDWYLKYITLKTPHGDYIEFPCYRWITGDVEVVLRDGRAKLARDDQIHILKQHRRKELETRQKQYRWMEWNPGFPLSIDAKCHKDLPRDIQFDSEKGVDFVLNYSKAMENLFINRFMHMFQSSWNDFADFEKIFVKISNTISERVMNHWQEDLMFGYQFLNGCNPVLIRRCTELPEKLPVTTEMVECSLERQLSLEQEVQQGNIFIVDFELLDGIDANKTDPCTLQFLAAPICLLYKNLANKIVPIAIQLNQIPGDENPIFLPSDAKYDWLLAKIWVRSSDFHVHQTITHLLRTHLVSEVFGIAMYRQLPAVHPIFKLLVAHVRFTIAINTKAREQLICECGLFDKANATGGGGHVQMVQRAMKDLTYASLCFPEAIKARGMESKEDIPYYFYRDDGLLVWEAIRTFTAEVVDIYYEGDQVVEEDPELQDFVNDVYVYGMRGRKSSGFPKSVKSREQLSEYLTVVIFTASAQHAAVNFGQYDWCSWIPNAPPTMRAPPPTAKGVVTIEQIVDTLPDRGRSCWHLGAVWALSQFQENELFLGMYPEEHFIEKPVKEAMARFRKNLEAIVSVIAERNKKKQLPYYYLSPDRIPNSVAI
The series can be described thus: In vitro 5-LOX inhibition (5-Lipoxygenase Inhibitor Screening Kit K980-100, Biovision).

The test system of series [1] is carrageenan-induced rat paw edema. Description: Carrageenan-induced rat paw edema assay. The series is classed as in vivo. The following applies: for % inhibition (edema) / Paw edema % inhibition / Paw edema thickness ± SEM: 50 mg/kg; for Paw edema % inhibition / Paw edema thickness ± SEM: rat; for ED50: Rattus norvegicus, dose producing 50% edema inhibition. The procedure:
As previously described, paw thickness was evaluated at 1, 3, and 5 h following carrageenan injection at a dose of 50 mg/kg.

Usually IC50 stands for the concentration at which inhibition is half-maximal. The term ED50 denotes the dose that gives a 50% effect, or the effect in half of the subjects. Read a low ED50 as an effect at a small dose.

Marks after values point to notes of the source that are not given here.

As to `CCOC(=O)COc1ccc(C2=NN(c3ccc(S(C)(=O)=O)cc3)C(c3ccc(OC)cc3)C2)cc1` (stereo not drawn) [Compound 15c, Ethyl 2-(4-(5-(4-methoxyphenyl)-1-(4-(methylsulfonyl)phenyl)-4,5-dihydro-1H-pyrazol-3-yl)phenoxy)acetate], the IC50 against 15-LOX was determined as 412 ± 16 nM; with iNOS it was 410 ± 60 nM; in the series with TNF-α, 770 ± 25 nM; at 5-LOX it was 453 ± 18 nM. Further, the “% incidence /10” value in the series with gastric mucosa is given as 2. For the same compound, the “Average no of ulcer” value in the series on gastric mucosa was 0.55 ± 0.012***^b. In the series on gastric mucosa, the Average severity is reported as 0.17 ± 0.004***^b. In addition, the “% inhibition (edema)” value in series [1] worked out at 70.02%. In addition, the “Paw edema % inhibition” value in series [1] (1 h after carrageenan) was determined as 38.3%; in series [1] (3 h after carrageenan) it was 55%; in series [1] (5 h after carrageenan), 66.1%. The “Paw edema thickness ± SEM” value is reported as 3.1 ± 0.002 mm in series [1] (1 h after carrageenan), 2.56 ± 0.0034 mm in series [1] (3 h after carrageenan) and 2.1 ± 0.0084 mm in series [1] (5 h after carrageenan). In series [1], this compound returned an ED50 of 24.1 mg/kg.

Take `CCOC(=O)COc1ccc(C2=NN(c3ccc(S(C)(=O)=O)cc3)C(c3ccc(Br)cc3)C2)cc1` (stereo not drawn) [Compound 15 h, Ethyl 2-(4-(5-(4-bromophenyl)-1-(4-(methylsulfonyl)phenyl)-4,5-dihydro-1H-pyrazol-3-yl)phenoxy)acetate]: the concentration for half-maximal inhibition (IC50) turned out to be 488 ± 19 nM at 15-LOX, 610 ± 130 nM in the series with iNOS, 1040 ± 42 nM with TNF-α and 813 ± 32 nM against 5-LOX. In the series on gastric mucosa, the “% incidence /10” value is reported as 2. In the series on gastric mucosa, the “Average no of ulcer” value is 0.40 ± 0.006^b. The Average severity in the series with gastric mucosa was 0.29 ± 0.009***^b. In series [1], the “% inhibition (edema)” value came to 82.28%. Besides, the “Paw edema % inhibition” value is reported as 54.85% in series [1] (1 h after carrageenan), 55.9% in series [1] (3 h after carrageenan) and 59.3% in series [1] (5 h after carrageenan). In addition, the “Paw edema thickness ± SEM” value in series [1] (1 h after carrageenan) was found to be 2.57 ± 0.0071 mm; in series [1] (3 h after carrageenan) it was 2.61 ± 0.018 mm; in series [1] (5 h after carrageenan), 2.44 ± 0.0099 mm. In series [1], this compound gave an ED50 of 29.9 mg/kg.

Turning to `CCOC(=O)COc1ccc(C2=NN(c3ccc(S(C)(=O)=O)cc3)C(c3cc(OC)c(OC)c(OC)c3)C2)cc1` (stereo not drawn) [Compound 15d, Ethyl 2-(4-(1-(4-(methylsulfonyl)phenyl)-5-(3,4,5-trimethoxyphenyl)-4,5-dihydro-1H-pyrazol-3-yl)phenoxy)acetate], the IC50 on 15-LOX was found to be 2230 ± 87 nM; in the series on iNOS, 531 ± 50 nM; with TNF-α, 1200 ± 60 nM; against 5-LOX, 241 ± 9 nM. In the series with gastric mucosa, the “% incidence /10” value is 2. In addition, the “Average no of ulcer” value with gastric mucosa is on record as 0.47 ± 0.006^b. For the same compound, the Average severity with gastric mucosa is on record as 0.51 ± 0.013^b. For the same compound, the “% inhibition (edema)” value in series [1] was 80.29%. The “Paw edema % inhibition” value in series [1] (1 h after carrageenan) was determined as 61.1%; in series [1] (3 h after carrageenan), 41.9%; in series [1] (5 h after carrageenan) it was 40%. Further, the figures for the “Paw edema thickness ± SEM” value in series [1] (1 h after carrageenan), in series [1] (3 h after carrageenan) and in series [1] (5 h after carrageenan) were 2.23 ± 0.0045 mm, 2.79 ± 0.011 mm and 2.90 ± 0.002 mm, respectively. The same compound gave an ED50 in series [1] of 31.2 mg/kg.
